Reference: US20100305093A1, “Inhibitors of mTOR and Methods of Making and Using” (EXELIXIS, INC., priority 2009, published 2010)
Where two headings read alike, the source gives them in different places.

Target: mTOR/GbL/Raptor (mTORC1) (Homo sapiens, UniProt P42345)
Test: mTOR/GbL/Raptor (mTORC1) ELISA assay, phosphorylation of 4E-BP1
Assay type: biochemical
Settings: 0.2 nM mTORC1, 10 μM ATP, 50 nM NHis-tagged 4E-BP1
Procedure: mTOR/GbL/Raptor (mTORC1) ELISA Assay
The measurement of mTORC1 enzyme activity was performed in an ELISA assay format following the phosphorylation of 4E-BP1 protein. All experiments were performed in the 384-well format. Generally, 0.5 μL DMSO containing varying concentrations of the test compound was mixed with 15 μL enzyme solution. Kinase reactions were initiated with the addition of 15 μL of substrates-containing solution. The assay conditions were as follows; 0.2 nM mTORC1, 10 μM ATP and 50 nM NHis-tagged 4E-BP1 in 20 mM Hepes, pH 7.2, 1 mM DTT, 50 mM NaCl, 10 mM MnCl2, 0.02 mg/mL BSA, 0.01% CHAPS, 50 mM β-glycerophosphate. Following an incubation of 120 minutes at ambient temperature, 20 μL of the reaction volume was transferred to a Ni-Chelate-coated 384-well plate. The binding step of the 4E-BP1 protein proceeded for 60 minutes, followed by washing 4 times each with 50 μL of Tris-buffered saline solution (TBS). Anti-phospho-4E-BP1 rabbit-IgG (20 μL, 1:5000) in 5% BSA-TBST (0.2% Tween-20 in TBS) was added and further incubated for 60 minutes. Incubation with a secondary HRP-tagged anti-IgG was similarly performed after washing off the primary antibody (4 washes of 50 μL). Following the final wash step with TBST, 20 μL of SuperSignal ELISA Femto (Pierce Biotechnology) was added and the luminescence measured using an EnVision plate reader.

[1] = read-out: Activity in mTOR/GbL/Raptor ELISA Assay
[2] = read-out: activity in mTOR/GbL/Raptor (mTORC1) ELISA assay, activity bands by Table 1 compound number

Row | Compound | IC50 [1] | IC50 [2]
1 | O=C(c1ccc(C(O)(O)C(F)(F)F)cc1)N1CCOc2ccc(-c3ccc(-c4ncc[nH]4)cc3)cc2C1 [2,2,2-trifluoro-1-[4-({7-[4-(1H-imidazol-2-yl)phenyl]-2,3-dihydro-1,4-benzoxazepin-4(5H)-yl}carbonyl)phenyl]ethane-1,1-diol] | 3 nM | –
2 | CCc1c(C(=O)N2CCOc3ccc(-c4ccc(NC(=O)N(C)C)cc4)cc3C2)ccc(S(C)(=O)=O)c1F [3-[4-(4-{[2-ethyl-3-fluoro-4-(methylsulfonyl)phenyl]carbonyl}-2,3,4,5-tetrahydro-1,4-benzoxazepin-7-yl)phenyl]-1,1-dimethylurea] | 14.4 nM | –
3 | CCc1c(C(=O)N2CCOc3ccc(-c4ccc(C(=O)NC)c(F)c4)cc3C2)ccc(S(C)(=O)=O)c1F [4-(4-{[2-ethyl-3-fluoro-4-(methylsulfonyl)phenyl]carbonyl}-2,3,4,5-tetrahydro-1,4-benzoxazepin-7-yl)-2-fluoro-N-methylbenzamide] | 11.9 nM | –
4 | Cc1nc2ccc(-c3ccc4c(c3)CN(C(=O)c3ccc5c(c3)CCS5(=O)=O)CCO4)cc2[nH]1 [4-[(1,1-dioxido-2,3-dihydro-1-benzothien-5-yl)carbonyl]-7-(2-methyl-1H-benzimidazol-6-yl)-2,3,4,5-tetrahydro-1,4-benzoxazepine] | 4.8 nM | –
5 | Cc1nc2ccc(-c3ccc4c(c3)CN(C(=O)c3cc5nc(C)sc5n3C)CCO4)cc2[nH]1 [4-[(2,4-dimethyl-4H-pyrrolo[3,2-d][1,3]thiazol-5-yl)carbonyl]-7-(2-methyl-1H-benzimidazol-6-yl)-2,3,4,5-tetrahydro-1,4-benzoxazepine] | 17.2 nM | –
6 | CCn1c(C(=O)N2CCOc3ccc(-c4ccc5nc(C)[nH]c5c4)cc3C2)c(Cl)c2ccccc21 [4-[(3-chloro-1-ethyl-1H-indol-2-yl)carbonyl]-7-(2-methyl-1H-benzimidazol-6-yl)-2,3,4,5-tetrahydro-1,4-benzoxazepine] | 9.5 nM | –
7 | COc1ccc(OC)c(S(=O)(=O)c2ccc(C(=O)N3CCOc4ccc(-c5ccc6nc(C)[nH]c6c5)cc4C3)cc2)c1 [4-[(4-{[2,5-bis(methyloxy)phenyl]sulfonyl}phenyl)carbonyl]-7-(2-methyl-1H-benzimidazol-6-yl)-2,3,4,5-tetrahydro-1,4-benzoxazepine] | 3.2 nM | –
8 | CCc1c(C(=O)N2CCOc3ccc(-c4ccc(-c5nc6ccc(C)cc6[nH]5)cc4)cc3C2)ccc(S(C)(=O)=O)c1F [4-{[2-ethyl-3-fluoro-4-(methylsulfonyl)phenyl]carbonyl}-7-[4-(6-methyl-1H-benzimidazol-2-yl)phenyl]-2,3,4,5-tetrahydro-1,4-benzoxazepine] | 6 nM | –
9 | CC(C)NS(=O)(=O)c1ccc(C(=O)N2CCOc3ccc(-c4ccc5nc[nH]c5c4)cc3C2)c(Br)c1 [4-{[7-(1H-benzimidazol-6-yl)-2,3-dihydro-1,4-benzoxazepin-4(5H)-yl]carbonyl}-3-bromo-N-(1-methylethyl)benzenesulfonamide] | 5.6 nM | –
10 | Nc1ccc(-c2ccc3c(c2)CN(C(=O)c2ccc(S(N)(=O)=O)cc2)CCO3)cn1 [4-{[7-(6-aminopyridin-3-yl)-2,3-dihydro-1,4-benzoxazepin-4(5H)-yl]carbonyl}benzenesulfonamide] | 6.6 nM | –
11 | Cc1ccc(C(=O)N2CCOc3ccc(-c4ccc5nc[nH]c5c4)cc3C2)c(C)c1 [7-(1H-benzimidazol-6-yl)-4-[(2,4-dimethylphenyl)carbonyl]-2,3,4,5-tetrahydro-1,4-benzoxazepine] | 6.4 nM | –
12 | O=C(c1ccc(-c2csnn2)cc1)N1CCOc2ccc(-c3ccc4cn[nH]c4c3)cc2C1 [7-(1H-indazol-6-yl)-4-{[4-(1,2,3-thiadiazol-4-yl)phenyl]carbonyl}-2,3,4,5-tetrahydro-1,4-benzoxazepine] | 6.3 nM | –
13 | Cc1nc2ccc(-c3ccc4c(c3)CN(C(=O)c3ccc(S(=O)(=O)N5CCN(C)CC5)cc3)CCO4)cc2[nH]1 [7-(2-methyl-1H-benzimidazol-6-yl)-4-({4-[(4-methylpiperazin-1-yl)sulfonyl]phenyl}carbonyl)-2,3,4,5-tetrahydro-1,4-benzoxazepine] | 8.6 nM | –
14 | Cc1nc2ccc(-c3ccc4c(c3)CN(C(=O)c3cc(S(=O)(=O)N5CCCC5)cn3C)CCO4)cc2[nH]1 [7-(2-methyl-1H-benzimidazol-6-yl)-4-{[1-methyl-4-(pyrrolidin-1-ylsulfonyl)-1H-pyrrol-2-yl]carbonyl}-2,3,4,5-tetrahydro-1,4-benzoxazepine] | 7.1 nM | –
15 | CCS(=O)(=O)c1ccc(C(=O)N2CCOc3ccc(-c4ccc(N)nc4)cc3C2)c(C)c1F [Example 566, 5-(4-{[4-(ethylsulfonyl)-3-fluoro-2-methylphenyl]carbonyl}-2,3,4,5-tetrahydro-1,4-benzoxazepin-7-yl)pyridin-2-amine] | – | ≤ 10 nM
16 | O=C(c1ccc(C(=O)C(F)(F)F)cc1)N1CCOc2ccc(-c3cccnc3)cc2C1 [Example 884, 2,2,2-trifluoro-1-{4-[(7-pyridin-3-yl-2,3-dihydro-1,4-benzoxazepin-4(5H)-yl)carbonyl]phenyl}ethanone] | – | 10 to 100 nM
17 | COc1ccc(-c2ccc3c(c2)CN(C(=O)c2ccc(S(N)(=O)=O)cc2)CCO3)cn1 [Example 885, 4-({7-[6-(methyloxy)pyridin-3-yl]-2,3-dihydro-1,4-benzoxazepin-4(5H)-yl}carbonyl)benzenesulfonamide] | – | 10 to 100 nM
18 | COc1ccc(-c2ccc3c(c2)CN(C(=O)c2ccc(S(C)(=O)=O)cc2)CCO3)cn1 [Example 886, 7-[6-(methyloxy)pyridin-3-yl]-4-{[4-(methylsulfonyl)phenyl]carbonyl}-2,3,4,5-tetrahydro-1,4-benzoxazepine] | – | 100 to 500 nM
19 | COc1ccc(-c2ccc3c(c2)CN(C(=O)c2ccc(C(=O)C(F)(F)F)cc2)CCO3)cn1 [Example 887, 2,2,2-trifluoro-1-[4-({7-[6-(methyloxy)pyridin-3-yl]-2,3-dihydro-1,4-benzoxazepin-4(5H)-yl}carbonyl)phenyl]ethanone] | – | 10 to 100 nM
20 | CS(=O)(=O)c1ccc(C(=O)N2CCOc3ccc(-c4ccc(N)nc4)cc3C2)cc1 [Example 888, 5-(4-{[4-(methylsulfonyl)phenyl]carbonyl}-2,3,4,5-tetrahydro-1,4-benzoxazepin-7-yl)pyridin-2-amine] | – | 10 to 100 nM
21 | CCc1c(C(=O)N2CCOc3ccc(-c4ccc(C(=O)NCC5CNC5)cc4)cc3C2)ccc(S(C)(=O)=O)c1F [N-(azetidin-3-ylmethyl)-4-(4-{[2-ethyl-3-fluoro-4-(methylsulfonyl)phenyl]carbonyl}-2,3,4,5-tetrahydro-1,4-benzoxazepin-7-yl)benzamide] | 9.9 nM | –
22 | CCc1c(C(=O)N2CCOc3ccc(-c4cnc(NCCNC)s4)cc3C2)ccc(S(C)(=O)=O)c1F [N-[5-(4-{[2-ethyl-3-fluoro-4-(methylsulfonyl)phenyl]carbonyl}-2,3,4,5-tetrahydro-1,4-benzoxazepin-7-yl)-1,3-thiazol-2-yl]-N′-methylethane-1,2-diamine] | 5.3 nM | –
